Laboratory results reported in US6509377B1, “Use of a 2-hydroxy-4-trifluoromethylbenzoic acid derivatives as inhibitors of the activation of the nuclear transcription factor NF-κB” (J. Uriach & Cia, S.A., priority 1999, dated 2003).

Columns and labels:
MCP-1 = MCP-1 expression induced by immune complexes in THP-1 cells (ELISA); type: cell-based, human; conditions: 100 μg/ml A-IgG
Procedure: Human monocytic THP-1 cells (3×10^6 cells/well) were cultured in plastic dishes in RPMI 1640 culture medium supplemented with penicillin (100 U/ml), streptomycin (100 μg/ml), gentamycin (50 μg/ml), glutamine (2 mM) and 2% heat-inactivated fetal calf serum. Cells were cultured in the presence of HTB (2 and 4 mM) or vehicle and were activated with 100 μg/ml immune complex aggregates (A-IgG). The production of soluble MCP-1 was determined by ELISA using a commercially available kit (R&D Systems Inc.; Minneapolis, Minn.). The detection limit of the system was 5 pg/ml.

COX-2 = COX-2 expression in rat inflammatory exudate cells (carrageenan air pouch); type: in vivo; conditions: oral 3-30 mg/kg, 6 h
Procedure: Lewis rats (175-200 g) were used in this study. Rats were randomly distributed in groups of 5 animals. An, air pouch was produced by subcutaneous injection of 20 ml of sterile air into the intrascapular area of animals in each group. Every two days, 10 ml of air were injected again into the cavity to keep the space open. Seven days after the first injection of air, 2 ml of a 1% carrageenan solution was injected into the air pouch in all groups to produce an inflammatory reaction. Test compound was administered orally 30 min before carrageenan administration. The animals were killed 6 h later and the volume of exudate was measured. The type and number of cells present were determined using standard Wright-Giemsa staining and a Coulter Counter cell counter, respectively. The exudate was centrifuged at 400 g at 4° C. for 7 min and PGE2 concentration was determined by enzyme-immunoassay (Amershan-Biotrak RPN222). The cell pellet was resuspended in 2 ml cold 0.85% NaCl. To eliminate red cell contamination, cells were subjected to a selective cellular lysis by the addition of 6 ml cold water for 20 seconds. The isotonicity of the cellular suspension was restored by the addition of 2 ml 3.5% NaCl. […]

NF-κB = NF-κB activation in brain cells of post-natal Long Evans black-hooded rats (NMDA lesion); type: in vivo, rat
Procedure: This study was carried out using post-natal (P9) Long Evans black-hooded rats. Each group consisted of 6 animals subjected to an experimental lesion, plus two control animals of the same age. The experimental lesion was induced by intracortical injection (sensorimotor area) of N-methyl-D-aspartate (NMDA), which causes a marked local neuronal degeneration. Triflusal (30 mg/kg) was administered orally in three doses (from day 7 to 9) every 24 hours. Glial reactivity was induced by NMDA injection at postnatal day 9, one hour after the last triflusal dose. At different times (2-24 h) after this last dose, animals were killed, brains were extracted and cut in a cryostat and sections were processed using immunocytochemical and histochemical techniques to determine NF-κB activation in microglia and astroglia using double staining: NF-κB-lectin and NF-κB-GFPA. In parallel, slices were cut on a vibratome to determine the degree of microglial and astroglial reactivity by histoenzymatic techniques (B. Castellano et al., J.Histochem. Cytochem., 1991, 39(5), 561-568).

[1] = Adjuvant-induced arthritis in the rat; type: in vivo; conditions: 10 mg/kg p.o. daily for 28 days, day 28
Procedure: Adjuvant-induced arthritis is characterized by the development, from day 14 after adjuvant injection, of a chronic inflammation of immunological origin in several joints, with accumulation of inflammatory cells and release of cytokines. For this study, male Lewis rats with body weight between 100 and 150 g were used. Before the start of the study animals were acclimated for a period of at least 5 days. Animals were fasted for 18 hours before the study, with water ad libitum. Throughout the study, animals were allowed free access to drinking water, except during observation periods. Groups of five animals were randomized (Sham, Control and Triflusal). The duration of the study was 28 days. Arthritis was induced on day 1 of the study by subplantar administration of 0.1 ml of an emulsion formed with 10 mg M. butyricum and 10 ml Freund's incomplete adjuvant (Difco) to the right hindpaw of the animals from the Control and Triflusal groups. Sham animals received 0.1 ml Freund's incomplete adjuvant. […] On day 28 of the development of arthritis, the volume of the contralateral paw to that receiving the adjuvant injection was determined using a UGO BASILE 7150 plethysmometer. The inhibition of the increase in volume was calculated as follows: % Inh.=100−((T-S)/(C-S))*100 Where: T=Triflusal group; C=Control group; and S=Sham group

Row | Structure (SMILES) | inhibition of MCP-1 expression induced by immune complexes (MCP-1; 2 mM) | inhibition of MCP-1 expression induced by immune complexes (MCP-1; 4 mM) | inhibition of COX-2 expression in the cells present in the exudate (COX-2) | NF-κB activation in astroglial and microglial cells after NMDA excitotoxic lesion (NF-κB; 30 mg/kg p.o. pretreatment) | basal (constitutive) NF-κB activation in cortical neurons of control animals (NF-κB; triflusal 30 mg/kg orally, three doses every 24 hours) | inhibition of the increase in volume of the contralateral paw [1]
1 | O=C(O)c1ccc(C(F)(F)F)cc1O [HTB, 2-hydroxy-4-trifluoromethylbenzoic acid] | complete inhibition | complete inhibition |  |  |  | 
2 | CC(=O)Oc1cc(C(F)(F)F)ccc1C(=O)O [triflusal, 2-Acetyloxy-4-trifluoromethylbenzoic acid, reference compound] |  |  | dose-dependently inhibits | completely inhibited | inhibited | 63.1±8.0%
